pIC50: −log10 of the molar value. Like-named read-outs stand apart in the source and are kept apart here. Strand notation (5' to 3'): a small letter for the sugar, then the base; units joined by * are phosphorothioate-linked, units joined directly phosphodiester-linked; [ ] holds rarer units or linkages, { } end groups; capitals alone tell only the bases. e = 2'-O-(2-methoxyethyl) (MOE); [5mC] = 5-methylcytosine; d = 2'-deoxy (DNA)
Experiments:
[1] = Viscosity of ISIS antisense oligonucleotides, micro-viscometer at 25 °C (Example 47); format: physicochemical; details: for Concentration: concentration of the viscosity sample, UV reading at 260 nM at 85° C.; for Viscosity: in water, micro-viscometer at 25° C., at the concentration of the same line
Protocol: The viscosity of antisense oligonucleotides targeting human Factor 11 was measured with the aim of screening out antisense oligonucleotides which have a viscosity more than 40 cP at a concentration of 165-185 mg/mL.
ISIS oligonucleotides (32-35 mg) were weighed into a glass vial, 120 μL of water was added and the antisense oligonucleotide was dissolved into solution by heating the vial at 50° C. Part of (75 μL) the pre-heated sample was pipetted to a micro-viscometer (Cambridge). The temperature of the micro-viscometter was set to 25° C. and the viscosity of the sample was measured. Another part (20 μL) of the pre-heated sample was pipetted into 10 mL of water for UV reading at 260 nM at 85° C. (Cary UV instrument).

Factor 11 mRNA = Factor 11 mRNA in cynomolgus monkey liver, day 55 (Example 46); format: in vivo, cynomolgus monkeys; details: 25 mg/kg subcutaneously, primer probe set LTS00301
Protocol: (§1) Groups, each consisting of two male and two female monkeys, were injected subcutaneously with 25 mg/kg of ISIS 416850, ISIS 449709, ISIS 445522, ISIS 449710, ISIS 449707, ISIS 449711, ISIS 449708, 416858, and ISIS 445531. Antisense oligonucleotide was administered to the monkeys at 25 mg/kg three times per week for week 1 and 25 mg/kg twice per week for weeks 2 to 8. A control group, consisting of two male and two female monkeys was injected subcutaneously with PBS according to the same dosing regimen. Body weights were taken 14 days and 7 days before the start of treatment and were then measured weekly throughout the treatment period. Blood samples were collected 14 days and 5 days before the start of treatment and subsequently several times during the dosing regimen for PT and aPTT measurements, and measurement of various hematologic factors. On day 55, the monkeys were euthanized by exsanguination while under deep anesthesia, and organs harvested for further analysis.
On day 55, RNA was extracted from liver tissue for real-time PCR analysis of Factor 11 using primer probe set LTS00301. Results are presented as percent inhibition of Factor 11, relative to PBS control.

Factor 11 protein = Factor 11 protein in monkey plasma by sandwich ELISA (Example 46); format: in vivo, cynomolgus monkeys; details: 25 mg/kg subcutaneously
Protocol: as §1
Plasma samples from all monkey groups taken on different days were analyzed by a sandwich-style ELISA assay (Affinity Biologicals Inc.) using an affinity-purified polyclonal anti-Factor 11 antibody as the capture antibody and a peroxidase-conjugated polyclonal anti-Factor 11 antibody as the detecting antibody. Monkey plasma was diluted 1:50 for the assay. Peroxidase activity was expressed by incubation with the substrate o-phenylenediamine. The color produced was quantified using a microplate reader at 490 nm and was considered to be proportional to the concentration of Factor 11 in the samples.
The results are presented in Table 147, expressed as percentage reduction relative to that of the PBS control.

human Factor 11 mRNA = assay: Dose-dependent inhibition of human Factor 11 in HepG2 cells, electroporation 375-12,000 nM (Example 32); format: cell-based; details: for Percent inhibition of Factor 11 mRNA at 375 nM / Percent inhibition of Factor 11 mRNA at 750 nM / pIC50: electroporation; for Percent inhibition of Factor 11 mRNA at 375 nM / Percent inhibition of Factor 11 mRNA at 750 nM / Percent inhibition of Factor 11 mRNA at 1,500 nM / Percent inhibition of Factor 11 mRNA at 3,000 nM / Percent inhibition of Factor 11 mRNA at 6,000 nM / Percent inhibition of Factor 11 mRNA at 12,000 nM: approx. 16 hours, relative to untreated control cells; for Percent inhibition of Factor 11 mRNA at 1,500 nM: electroporation, 1,500 nM; for Percent inhibition of Factor 11 mRNA at 3,000 nM: electroporation, 3,000 nM; for Percent inhibition of Factor 11 mRNA at 6,000 nM: electroporation, 6,000 nM; for Percent inhibition of Factor 11 mRNA at 12,000 nM: electroporation, 12,000 nM; for pIC50: Factor 11 mRNA expression
Protocol: These gapmers were tested at various doses in HepG2 cells. Cells were plated at a density of 20,000 cells per well and transfected using electroporation with 375 nM, 750 nM, 1,500 nM, 3,000 nM, 6,000 nM and 12,000 nM concentrations of antisense oligonucleotide, as specified in Table 47. After a treatment period of approximately 16 hours, RNA was isolated from the cells and Factor 11 mRNA levels were measured by quantitative real-time PCR. Human Factor 11 primer probe set RTS 2966 was used to measure mRNA levels. Factor 11 mRNA levels were adjusted according to total RNA content, as measured by RIBOGREEN. Results are presented as percent inhibition of Factor 11, relative to untreated control cells.
ISIS 416850, ISIS 416858, ISIS 445522, and ISIS 445531 (see Table 45 above) were re-tested in vitro along with the microwalk gapmers under the same conditions described above.
The first two listed gapmers in Table 47 are the original gapmers (ISIS 416850 and ISIS 416858) from which the remaining gapmers were designed via microwalk and are designated by an asterisk.

[2] = rat, in vivo, sc, 50 mg/kg
[3] = rat, in vivo, sc, 50 mg/kg; remark: listed apart in the source
[4] = rat, in vivo, sc, 50 mg/kg; remark: listed apart in the source
[5] = mouse, in vivo, sc, 50 mg/kg
[6] = mouse, in vivo, sc, 50 mg/kg; remark: listed apart in the source
[7] = mouse, in vivo, sc, 50 mg/kg; remark: listed apart in the source

## 449707 (antisense e[5mC]*eA*e[5mC]*eA*dG*dT*dT*dT*d[5mC]*dT*dG*dG*e[5mC]*eA*eG*eG) [compound 449707]
[1]
  Concentration: 166 mg/mL
  Viscosity: 7 cP
Factor 11 mRNA
  % inhibition of Factor 11 mRNA in liver relative to the PBS control: 47%
Factor 11 protein; Day 10, plasma
  Inhibition of Factor 11 protein relative to the PBS control (percentage reduction): 16%
Factor 11 protein; Day 17, plasma
  Inhibition of Factor 11 protein relative to the PBS control (percentage reduction): 19%
Factor 11 protein; Day 24, plasma
  Inhibition of Factor 11 protein relative to the PBS control (percentage reduction): 21%
Factor 11 protein; Day 31, plasma
  Inhibition of Factor 11 protein relative to the PBS control (percentage reduction): 29%
Factor 11 protein; Day 38, plasma
  Inhibition of Factor 11 protein relative to the PBS control (percentage reduction): 28%
Factor 11 protein; Day 45, plasma
  Inhibition of Factor 11 protein relative to the PBS control (percentage reduction): 35%
Factor 11 protein; Day 52, plasma
  Inhibition of Factor 11 protein relative to the PBS control (percentage reduction): 29%
Factor 11 protein; Day 55, plasma
  Inhibition of Factor 11 protein relative to the PBS control (percentage reduction): 32%
Factor 11 protein; Day −5, plasma
  Inhibition of Factor 11 protein relative to the PBS control (percentage reduction): 0%
Factor 11 protein; Day −14, plasma
  Inhibition of Factor 11 protein relative to the PBS control (percentage reduction): 0%
Human Factor 11 mRNA
  Percent inhibition of Factor 11 mRNA at 375 nM: 7%
  Percent inhibition of Factor 11 mRNA at 750 nM: 35%
  Percent inhibition of Factor 11 mRNA at 1,500 nM: 63%
  Percent inhibition of Factor 11 mRNA at 3,000 nM: 73%
  Percent inhibition of Factor 11 mRNA at 6,000 nM: 85%
  Percent inhibition of Factor 11 mRNA at 12,000 nM: 91%
  pIC50: 5.90

## 449708 (antisense eA*e[5mC]*eA*dG*dT*dT*dT*d[5mC]*dT*dG*dG*e[5mC]*eA*eG) [compound 449708]
[1]
  Concentration: 188 mg/mL
  Viscosity: 9 cP
Factor 11 mRNA
  % inhibition of Factor 11 mRNA in liver relative to the PBS control: 46%
Factor 11 protein; Day 10, plasma
  Inhibition of Factor 11 protein relative to the PBS control (percentage reduction): 7%
Factor 11 protein; Day 17, plasma
  Inhibition of Factor 11 protein relative to the PBS control (percentage reduction): 15%
Factor 11 protein; Day 24, plasma
  Inhibition of Factor 11 protein relative to the PBS control (percentage reduction): 3%
Factor 11 protein; Day 31, plasma
  Inhibition of Factor 11 protein relative to the PBS control (percentage reduction): 14%
Factor 11 protein; Day 38, plasma
  Inhibition of Factor 11 protein relative to the PBS control (percentage reduction): 9%
Factor 11 protein; Day 45, plasma
  Inhibition of Factor 11 protein relative to the PBS control (percentage reduction): 2%
Factor 11 protein; Day 52, plasma
  Inhibition of Factor 11 protein relative to the PBS control (percentage reduction): 6%
Factor 11 protein; Day 55, plasma
  Inhibition of Factor 11 protein relative to the PBS control (percentage reduction): 6%
Factor 11 protein; Day −5, plasma
  Inhibition of Factor 11 protein relative to the PBS control (percentage reduction): 0%
Factor 11 protein; Day −14, plasma
  Inhibition of Factor 11 protein relative to the PBS control (percentage reduction): 1%
Human Factor 11 mRNA
  Percent inhibition of Factor 11 mRNA at 375 nM: 0%
  Percent inhibition of Factor 11 mRNA at 750 nM: 0%
  Percent inhibition of Factor 11 mRNA at 1,500 nM: 22%
  Percent inhibition of Factor 11 mRNA at 3,000 nM: 33%
  Percent inhibition of Factor 11 mRNA at 6,000 nM: 61%
  Percent inhibition of Factor 11 mRNA at 12,000 nM: 85%
  pIC50: 5.35

## 449711 (antisense eA*e[5mC]*dA*dG*dT*dT*dT*d[5mC]*dT*dG*dG*d[5mC]*eA*eG) [compound 449711]
[1]
  Concentration: 209 mg/mL
  Viscosity: 6 cP
Factor 11 mRNA
  % inhibition of Factor 11 mRNA in liver relative to the PBS control: 0%
Factor 11 protein; Day 10, plasma
  Inhibition of Factor 11 protein relative to the PBS control (percentage reduction): 5%
Factor 11 protein; Day 17, plasma
  Inhibition of Factor 11 protein relative to the PBS control (percentage reduction): 3%
Factor 11 protein; Day 24, plasma
  Inhibition of Factor 11 protein relative to the PBS control (percentage reduction): 6%
Factor 11 protein; Day 31, plasma
  Inhibition of Factor 11 protein relative to the PBS control (percentage reduction): 9%
Factor 11 protein; Day 38, plasma
  Inhibition of Factor 11 protein relative to the PBS control (percentage reduction): 2%
Factor 11 protein; Day 45, plasma
  Inhibition of Factor 11 protein relative to the PBS control (percentage reduction): 4%
Factor 11 protein; Day 52, plasma
  Inhibition of Factor 11 protein relative to the PBS control (percentage reduction): 3%
Factor 11 protein; Day 55, plasma
  Inhibition of Factor 11 protein relative to the PBS control (percentage reduction): 5%
Factor 11 protein; Day −5, plasma
  Inhibition of Factor 11 protein relative to the PBS control (percentage reduction): 1%
Factor 11 protein; Day −14, plasma
  Inhibition of Factor 11 protein relative to the PBS control (percentage reduction): 0%
Human Factor 11 mRNA
  Percent inhibition of Factor 11 mRNA at 375 nM: 6%
  Percent inhibition of Factor 11 mRNA at 750 nM: 14%
  Percent inhibition of Factor 11 mRNA at 1,500 nM: 1%
  Percent inhibition of Factor 11 mRNA at 3,000 nM: 7%
  Percent inhibition of Factor 11 mRNA at 6,000 nM: 32%
  Percent inhibition of Factor 11 mRNA at 12,000 nM: 52%
  pIC50: 4.96

## ISIS 416859: MOE gapmer, nucleobases 1275 to 1318 of SEQ ID NO: 1 (Table 8) (antisense GACGGCATTGGTGCACAGTT; MOE gapmer, wing and gap sizes not given here)
[2]
  HCT: 45%
  Lymphocyte: 14323
  Neutrophil: 1414
  Platelets: 853
  RBC: 7.8 10^6/μL
  WBC: 16 10^3/μL
  hemoglobin: 14.0 g/dL
[3]
  ALT: 114 IU/L
  AST: 206 IU/L
  Albumin: 5
  Bilirubin: 0.21 mg/dL
[4]
  BUN: 24 mg/dL
  Creatinine: 44 mg/dL
  Total urine protein: 144 mg/dL
  Urine protein/creatinine ratio: 3.3
[5]
  HCT: 49%
  Lymphocyte: 4363 cells/μL
  Neutrophil: 1561 cells/μL
  Platelets: 826 10^3/μL
  RBC: 10 10^6/μL
  WBC: 6 10^3/μL
  hemoglobin: 15 g/dL
  monocytes: 229 cells/μL
[6]
  BUN: 18 mg/dL
[7]
  ALT: 214 IU/L
  AST: 293 IU/L
  Bilirubin: 0.20 mg/dL
  Cholesterol: 160 mg/dL

From US20230263822A1, “MODULATION OF FACTOR 11 EXPRESSION” (Ionis Pharmaceuticals, Inc., priority 2008, published 2023)
